Consider 36 molecules from US8193237B2, “Indole derivative having IκB kinase β inhibitory activity” (Santen Pharmaceutical Co., Ltd., priority 2007, dated 2012).

This test has as its target T1, IKKβ (Homo sapiens, UniProt O14920).
T1 construct: purchased Upstate Biotechnology Inc. 14-485
T1 sequence (O14920 1-756): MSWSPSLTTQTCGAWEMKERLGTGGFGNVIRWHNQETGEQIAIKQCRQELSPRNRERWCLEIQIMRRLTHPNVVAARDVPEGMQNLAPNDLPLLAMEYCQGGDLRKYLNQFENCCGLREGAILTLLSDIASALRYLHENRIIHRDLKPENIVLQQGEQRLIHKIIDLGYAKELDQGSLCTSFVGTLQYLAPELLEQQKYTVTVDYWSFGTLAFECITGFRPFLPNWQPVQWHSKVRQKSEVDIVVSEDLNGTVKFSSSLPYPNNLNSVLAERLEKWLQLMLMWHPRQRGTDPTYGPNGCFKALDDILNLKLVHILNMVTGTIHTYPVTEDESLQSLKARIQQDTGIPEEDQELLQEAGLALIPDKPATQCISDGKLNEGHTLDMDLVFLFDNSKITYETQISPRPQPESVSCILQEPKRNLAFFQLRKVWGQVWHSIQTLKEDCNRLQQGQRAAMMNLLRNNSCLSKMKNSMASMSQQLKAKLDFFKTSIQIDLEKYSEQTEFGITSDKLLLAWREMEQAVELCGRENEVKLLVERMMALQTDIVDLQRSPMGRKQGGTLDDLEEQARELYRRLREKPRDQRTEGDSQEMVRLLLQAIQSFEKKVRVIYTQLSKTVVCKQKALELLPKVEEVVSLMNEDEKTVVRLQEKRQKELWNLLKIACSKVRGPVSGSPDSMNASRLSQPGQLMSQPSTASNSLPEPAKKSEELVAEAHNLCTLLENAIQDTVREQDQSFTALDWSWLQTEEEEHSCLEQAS
As to the kind of experiment: IKKβ inhibition assay by fluorescence polarization (IMAP kit). Format: biochemical. To be noted: test compound at 1 μM; inhibition rate exceeding 100% is indicated as 100%. On the procedure:
In order to evaluate IKKβ inhibitory activity of the present compounds, an IKKβ inhibition assay by the fluorescence polarization method was conducted.
The assay was conducted using IMAP™ IKKβ assay kit (manufactured by Molecular Devices Corporation, catalogue No. R8115) or IMAP™ FP Screening Express kit (manufactured by Molecular Devices Corporation, catalogue No. R8127) and in accordance with the protocol attached to each kit. The specific methods are described below. (Preparation of Reagents)
1) Complete Reaction Buffer: a complete reaction buffer was so prepared as to obtain a final concentration of 10 mM Tris-HCL (pH 7.2), 10 mM magnesium chloride, 0.1% bovine serum albumin, and 1 mM dithiothreitol.
2) Substrate Working Solution: 400 nM of a substrate working solution was prepared by dissolving and diluting a fluorescein-labeled IKKβ substrate peptide (amino acid sequence: GRHDSGLDSMK) with the complete reaction buffer.
3) Enzyme Working Solution: 0.2 units/mL of an enzyme working solution was prepared by diluting IKKβ solution (manufactured by Upstate Biotechnology Inc., catalogue No. 14-485) with the complete reaction buffer.
4) ATP Working Solution: 8 μM of an ATP working solution was prepared by dissolving ATP into ultrapure water followed by diluting it with the complete reaction buffer.
5) IMAP binding solution: After diluting an IMAP binding buffer with ultrapure water, an IMAP binding solution was prepared by diluting an IMAP binding reagent with the diluted IMAP binding buffer.
A test compound was dissolved in dimethylsulfoxide followed by diluting it with the complete reaction buffer to prepare 4 μM of a test compound solution.
1) To a 384-well plate, the test compound solution, the enzyme working solution, the substrate working solution, and the ATP working solution were added in an amount of 5 μL per well.
2) Incubation was performed at a room temperature for 60 minutes under light shielding.
3) The IMAP binding solution was added in an amount of 60 μL per well.
4) Incubation was performed at a room temperature for 30 minutes under light shielding.
5) Fluorescence polarization value of each well was measured by using Analyst™ HT (multimode plate reader manufactured by Molecular Devices Corporation) and Criterion Host Software v2.00 (manufactured by Molecular Devices Corporation).
6) Operations were performed in the same manner as in 1) to 5) except for changing the test compound to 0.4% dimethylsulfoxide. The obtained result was designated as a control.
7) Operations were performed in the same manner as in 1) to 5) except for changing the test compound and the enzyme working solution to 0.4% dimethylsulfoxide and the complete reaction buffer, respectively. The obtained result was designated as a background.
An IKKβ inhibition rate (%) was calculated by the following equation.
IKKβ inhibition rate (%)=100×{1−(fluorescence polarization value of test compound−fluorescence polarization value of background)/(fluorescence polarization value of control−fluorescence polarization value of background)}
In general, inhibition refers to how much of the control response was suppressed. A high value points to strong suppression. Turning to `NC(=O)Nc1[nH]c2cc(-c3cccc(CNCCO)c3)ccc2c1C(N)=O` [Compound 13-13, 2-Aminocarbonylamino-6-[3-(2-hydroxyethylaminomethyl)phenyl]indole-3-carboxamide], 1 µM produced 100% inhibition.

In turn, `COc1cc(-c2ccc3c(C(N)=O)c(NC(N)=O)[nH]c3c2)ccc1CO` [Compound 7-14] came in with an inhibition at 1 µM of 100%.

The molecule `NC(=O)Nc1[nH]c2cc(-c3ccccc3)ccc2c1C(N)=O` [Compound 4-2, 2-Aminocarbonylamino-6-phenylindole-3-carboxamide] gave an inhibition at 1 µM of 100%.

Take `NC(=O)Nc1[nH]c2cc(C(=O)NCc3ccccc3)ccc2c1C(N)=O` [Compound 22-9]: 1 µM produced 100% inhibition.

As for `NC(=O)Nc1[nH]c2cc(-c3cccc(CO)c3)ccc2c1C(N)=O` [Compound 12-1, 2-aminocarbonylamino-6-(3-hydroxymethylphenyl)indole-3-carboxamide], the inhibition at 1 µM was found to be 100%.

`NC(=O)Nc1[nH]c2cc(-c3cccc(F)c3)ccc2c1C(N)=O` [Compound 4-11, 2-Aminocarbonylamino-6-(3-fluorophenyl)indole-3-carboxamide]: at 1 µM the inhibition was 100%.

The molecule `NC(=O)Nc1[nH]c2cc(CN3CCCC3)ccc2c1C(N)=O` [Compound 24-2] registered an inhibition at 1 µM of 100%.

With `NC(=O)Nc1[nH]c2cc(-c3ccnc(Cl)c3)ccc2c1C(N)=O` [Compound 7-26], the inhibition at 1 µM stood at 98%.

`CN(C)c1ccc2c(C(N)=O)c(NC(N)=O)[nH]c2c1` [Compound 2-4, 2-Aminocarbonylamino-6-dimethylaminoindole-3-carboxamide]: at 1 µM the inhibition was 95%.

Molecule `NC(=O)Nc1[nH]c2cc(-c3ccsc3Cl)ccc2c1C(N)=O` [Compound 4-23, 2-Aminocarbonylamino-6-(2-chlorothiophen-3-yl)indole-3-carboxamide] had an inhibition at 1 µM of 100%.

Regarding `NC(=O)Nc1[nH]c2cc(C#CCO)ccc2c1C(N)=O` [Compound 9-2, 2-Aminocarbonylamino-6-(3-hydroxy-1-propynyl) indole-3-carboxamide], 1 µM produced 95% inhibition.

Turning to `NC(=O)Nc1c(C(N)=O)c2ccc(Br)cc2n1O` [Compound 1-1, 2-Aminocarbonylamino-6-bromo-1-hydroxyindole-3-carboxamide], 1 µM produced 86% inhibition.

In turn, `NC(=O)Nc1[nH]c2cc(-c3ccsc3)ccc2c1C(N)=O` [Compound 4-18, 2-Aminocarbonylamino-6-(thiophen-3-yl)indole-3-carboxamide] came in with an inhibition at 1 µM of 98%.

`NC(=O)Nc1[nH]c2cc(-c3cccc([N+](=O)[O-])c3)ccc2c1C(N)=O` [Compound 4-16, 2-Aminocarbonylamino-6-(3-nitrophenyl)indole-3-carboxamide] registered an inhibition at 1 µM of 100%.

In turn, `NC(=O)Nc1[nH]c2cc(CCCCO)ccc2c1C(N)=O` [Compound 11-6, 2-Aminocarbonylamino-6-(4-hydroxybutyl)indole-3-carboxamide] displayed an inhibition at 1 µM of 98%.

`NC(=O)Nc1[nH]c2cc(-c3cccnc3)ccc2c1C(N)=O` [Compound 4-9, 2-Aminocarbonylamino-6-(pyridin-3-yl)indole-3-carboxamide] showed an inhibition at 1 µM of 100%.

The molecule `NC(=O)Nc1[nH]c2cc(-c3cnc4ccccc4c3)ccc2c1C(N)=O` [Compound 4-36, 2-Aminocarbonylamino-6-(quinolin-3-yl)indole-3-carboxamide] gave an inhibition at 1 µM of 99%.

`Cc1ccc2[nH]c(NC(N)=O)c(C(N)=O)c2c1` [Compound 1-2, 2-Aminocarbonylamino-5-methylindole-3-carboxamide] yielded an inhibition at 1 µM of 55%.

`NC(=O)Nc1[nH]c2cc(-c3cccs3)ccc2c1C(N)=O` [Compound 4-8, 2-Aminocarbonylamino-6-(thiophen-2-yl)indole-3-carboxamide] yielded an inhibition at 1 µM of 100%.

For the molecule `NC(=O)Nc1[nH]c2cc(CO)ccc2c1C(N)=O` [Compound 16-1, 2-Aminocarbonylamino-6-hydroxymethylindole-3-carboxamide], the inhibition at 1 µM turned out to be 78%.

`NC(=O)Nc1[nH]c2ccccc2c1C(N)=O` [Compound 2-10, 2-Aminocarbonylaminoindole-3-carboxamide] gave an inhibition at 1 µM of 75%.

As to `NC(=O)Nc1[nH]c2cc(-n3cccc3)ccc2c1C(N)=O` [Compound 2-9, 2-Aminocarbonylamino-6-(pyrrol-1-yl)indole-3-carboxamide], testing at 1 µM gave an inhibition of 100%.

On to `NC(=O)Nc1[nH]c2cc(C3SCCS3)ccc2c1C(N)=O` [Compound 20-1, 2-Aminocarbonylamino-6-(1,3-dithiolan-2-yl)indole-3-carboxamide], for which the inhibition at 1 µM worked out at 100%.

With `NC(=O)Nc1[nH]c2cc(-c3ccc[nH]3)ccc2c1C(N)=O` [Compound 5-1, 2-Aminocarbonylamino-6-(pyrrol-2-yl)indole-3-carboxamide], testing at 1 µM gave an inhibition of 95%.

With `CCSCc1ccc2c(C(N)=O)c(NC(N)=O)[nH]c2c1` [Compound 25-3], testing at 1 µM gave an inhibition of 100%.

`NC(=O)Nc1[nH]c2cc(-c3ccc4[nH]ccc4c3)ccc2c1C(N)=O` [Compound 4-65, 2-Aminocarbonylamino-6-(indol-5-yl)indole-3-carboxamide]: 1 µM produced 100% inhibition.

The molecule `C#Cc1ccc2c(C(N)=O)c(NC(N)=O)[nH]c2c1` [Compound 10-1, 2-aminocarbonylamino-6-ethynylindole-3-carboxamide] displayed an inhibition at 1 µM of 100%.

Molecule `CCC/C=C/c1ccc2c(C(N)=O)c(NC(N)=O)[nH]c2c1` [Compound 4-67, 2-Aminocarbonylamino-6-[(E)-1-pentenyl]indole-3-carboxamide] displayed an inhibition at 1 µM of 94%.

`NC(=O)Nc1[nH]c2cc(C(F)(F)F)ccc2c1C(N)=O` [Compound 2-16, 2-Aminocarbonylamino-6-trifluoromethylindole-3-carboximide] showed an inhibition at 1 µM of 95%.

`CC(C)NCc1cccc(-c2ccc3c(C(N)=O)c(NC(N)=O)[nH]c3c2)c1` [Compound 13-5, 2-Aminocarbonylamino-6-(3-isopropylaminomethylphenyl) indole-3-carboxamide] returned an inhibition at 1 µM of 100%.

Turning to `NCc1ccc(-c2ccc3c(C(N)=O)c(NC(N)=O)[nH]c3c2)cc1` [Compound 8-3], testing at 1 µM gave an inhibition of 100%.

The molecule `C[C@H](O)c1cccc(-c2ccc3c(C(N)=O)c(NC(N)=O)[nH]c3c2)c1` [Compound 7-45] yielded an inhibition at 1 µM of 98%.

The molecule `NC(=O)Nc1[nH]c2cc(N3CCCC3)ccc2c1C(N)=O` [Compound 2-5, 2-Aminocarbonylamino-6-(pyrrolidin-1-yl)indole-3-carboxamide] registered an inhibition at 1 µM of 86%.

For the molecule `C[C@@H](O)c1cccc(-c2ccc3c(C(N)=O)c(NC(N)=O)[nH]c3c2)c1` [Compound 7-44], the inhibition at 1 µM is 100%.

For the molecule `Cc1c(-c2ccoc2)ccc2c(C(N)=O)c(NC(N)=O)[nH]c12` [Compound 4-81, 2-Aminocarbonylamino-6-(furan-3-yl)-7-methylindole-3-carboxamide], 1 µM produced 96% inhibition.

The molecule `NC(=O)Nc1[nH]c2cc(-c3ccncc3)ccc2c1C(N)=O` [Compound 7-9] displayed an inhibition at 1 µM of 98%.
